Test results as given in patent publication US20210087206A1, “MACROCYCLIC KINASE INHIBITORS AND THEIR USE” (TURNING POINT THERAPEUTICS, INC., priority 2017, published 2021).

Columns and labels:
Assay in all cases: Cell proliferation assay (CellTiter-Glo)
Assay type in all cases: cell-based
[1] = test system: KG-1 cell (OP2-FGFR1); conditions: Homo sapiens, anti-cell proliferation, 72 hours
Experimental: (§1) Cell Lines and Cell Culture:
(§2) Colorectal cell line KM 12 (harboring endogenous TPM3-TRKA fusion gene) was obtained from NCI. Acute myelogenous cell line KG-1 (harboring endogenous OP2-FGFR1 fusion gene) were purchased from ATCC.
(§3) Cell Proliferation Assays:
(§4) Two thousand cells per well were seeded in 384 well white plate for 24 hrs, and then treated with compounds for 72 hours (37° C., 5% CO2). Cell proliferation was measured using CellTiter-Glo luciferase-based ATP detection assay (Promega) following the manufactures's protocol. IC50 determinations were performed using GraphPad Prism software (GraphPad, Inc., San Diego, Calif.).

[2] = test system: KM12 (TPM3-TRKA); conditions: Homo sapiens, anti-cell proliferation, 72 hours
Experimental: as §1, §2, §3, §4

[3] = target: T1, BaF3 EML4-ALK (Homo sapiens, UniProt Q9UM73); conditions: anti-cell proliferation, 72 hours
T1 construct: The EML4-ALK gene (variant 1) was synthesized at GenScript and cloned into pCDH-CMV-MCS-EF1-Puro plasmid (System Biosciences, Inc); fused on or other part: EML4 N-terminal part (variant 1: exons 1-13, with the coiled-coil that oligomerises the fusion) fused to the intracellular part of ALK, which contains the kinase domain; Q9HC35 (Echinoderm microtubule-associated protein-like 4)
Experimental: Cloning and Ba/F3 or NIH3T3 Stable Cell Line Creation
The EML4-ALK gene (variant 1) was synthesized at GenScript and cloned into pCDH-CMV-MCS-EF1-Puro plasmid (System Biosciences, Inc). Ba/F3-EML4-ALK wild type were generated by transducing Ba/F3 cells with lentivirus containing EML4-ALK wide type. Stable cell lines were selected by puromycin treatment, followed by IL-3 withdrawal. Briefly, 5×10^6 Ba/F3 cells were transduced with lentivirus supernatant in the presence of 8 μg/mL protamine sulfate. The transduced cells were subsequently selected with 1 μg/mL puromycin in the presence of IL3-containing medium RPMI1640, plus 10% FBS. After 10-12 days of selection, the surviving cells were further selected for IL3 independent growth.
as §3, §4

T1 sequence (Q9UM73 whole entry, stated change not applied, the tested form may be a part): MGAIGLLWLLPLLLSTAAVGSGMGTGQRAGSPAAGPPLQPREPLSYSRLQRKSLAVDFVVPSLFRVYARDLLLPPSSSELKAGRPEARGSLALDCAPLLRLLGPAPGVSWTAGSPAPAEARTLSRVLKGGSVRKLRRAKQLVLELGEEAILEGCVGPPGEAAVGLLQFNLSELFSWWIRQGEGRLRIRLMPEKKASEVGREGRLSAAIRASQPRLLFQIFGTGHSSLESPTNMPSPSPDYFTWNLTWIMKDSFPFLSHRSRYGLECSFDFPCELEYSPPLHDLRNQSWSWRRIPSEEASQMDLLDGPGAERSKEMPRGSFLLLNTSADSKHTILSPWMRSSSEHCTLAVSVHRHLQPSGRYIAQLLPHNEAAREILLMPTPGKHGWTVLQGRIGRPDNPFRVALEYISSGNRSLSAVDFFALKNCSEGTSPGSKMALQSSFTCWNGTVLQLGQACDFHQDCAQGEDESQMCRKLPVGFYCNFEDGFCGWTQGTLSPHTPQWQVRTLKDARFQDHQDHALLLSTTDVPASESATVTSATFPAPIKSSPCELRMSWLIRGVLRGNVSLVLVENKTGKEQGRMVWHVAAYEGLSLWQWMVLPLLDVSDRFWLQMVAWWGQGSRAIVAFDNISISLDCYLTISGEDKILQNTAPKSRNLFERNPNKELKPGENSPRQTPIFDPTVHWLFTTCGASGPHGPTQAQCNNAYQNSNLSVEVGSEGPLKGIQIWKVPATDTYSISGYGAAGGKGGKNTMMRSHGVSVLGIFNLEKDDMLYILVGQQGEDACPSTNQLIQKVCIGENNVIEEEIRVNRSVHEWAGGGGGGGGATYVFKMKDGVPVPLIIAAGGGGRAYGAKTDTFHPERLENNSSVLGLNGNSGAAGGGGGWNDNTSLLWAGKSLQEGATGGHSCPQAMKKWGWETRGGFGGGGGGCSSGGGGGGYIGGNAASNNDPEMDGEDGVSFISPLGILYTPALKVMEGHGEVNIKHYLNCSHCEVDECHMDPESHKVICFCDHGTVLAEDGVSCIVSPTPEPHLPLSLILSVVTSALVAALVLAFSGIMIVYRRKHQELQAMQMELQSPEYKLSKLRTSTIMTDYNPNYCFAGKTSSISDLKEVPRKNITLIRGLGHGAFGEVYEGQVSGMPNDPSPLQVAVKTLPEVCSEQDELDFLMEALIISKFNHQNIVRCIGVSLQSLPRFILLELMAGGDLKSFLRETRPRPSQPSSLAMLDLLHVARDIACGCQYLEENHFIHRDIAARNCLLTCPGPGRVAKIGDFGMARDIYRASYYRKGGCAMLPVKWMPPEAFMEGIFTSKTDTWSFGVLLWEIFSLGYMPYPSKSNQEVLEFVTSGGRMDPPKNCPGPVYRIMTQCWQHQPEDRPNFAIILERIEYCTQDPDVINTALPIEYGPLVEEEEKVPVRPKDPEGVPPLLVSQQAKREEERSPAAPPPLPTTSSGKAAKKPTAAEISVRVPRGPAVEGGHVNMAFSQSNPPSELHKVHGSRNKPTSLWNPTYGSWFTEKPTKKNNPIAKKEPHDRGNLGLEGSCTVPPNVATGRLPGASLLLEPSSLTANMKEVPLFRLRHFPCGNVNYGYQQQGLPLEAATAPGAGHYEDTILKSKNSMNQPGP

Row | SMILES | IC50 [1] | IC50 [2] | IC50 [3]
1 | C[C@@H]1COc2ncc(F)cc2CN2c3nc4c(cnn4cc3OCC23CCC3)C(=O)N1 [Compound 58, (13′R)-8′-fluoro-13′-methyl-3′H,6′H,12′H,13′H,14′H,15′H-spiro[cyclobutane-1,4′-[2,11]-dioxa[5,10,14,17,18,19]hexaaza-[18,1](metheno)[1,4]oxazino-[3,4-i]pyrazolo[4,3-f]pyrido-[3,2-l][1,4,8,10]oxatriazacyclo-tridecin]-15′-one] | 1620 nM | < 0.2 nM | 203 nM
2 | C[C@@H]1COc2ncc(F)cc2CN2c3nc4c(cnn4cc3OCC[C@H]2C)C(=O)N1 [Compound 22, (5R,14R)-9-fluoro-5,14-dimethyl-4,5,14,15-tetrahydro-3H,7H-19,1-(metheno)[1,4]oxazepino[3,4-i]-pyrazolo[4,3-f]pyrido[3,2-l] [1,4,8,10]oxatriazacyclotridecin-16(13H)-one] | 784 nM | < 0.2 nM | 731 nM
3 | C[C@H]1CNC(=O)c2cnn3cc4c(nc23)N(Cc2cc(F)ccc2O1)[C@H](COCc1ccccc1)CO4 [Compound 11, (4R,12S)-4-[(benzyloxy)methyl)-8-fluoro-12-methyl-3,4,13,14-tetrahydro-6H-18,1-(metheno)-[1,4]oxazino[3,4-i]pyrazolo[4,3-f][1,4,8,10]benzoxatriazacyclo-tridecin-15(12H)-one] | 4000 nM | 91.1 nM | 3170 nM
4 | C[C@@H]1CCOc2ncc(F)cc2CN2c3nc4c(cnn4cc3OC[C@H]2C)C(=O)N1 [Compound 32, (6R,16R)-12-fluoro-6,16-dimethyl-5,6,7,8,16,17-hexahydro-4H,14H-1,19-(metheno)[1,4]oxazino[4,3-e]pyrazolo[3,4-h]pyrido[2,3-b] [1,5,7,11]oxatriazacyclotetradecin-4-one] | 137 nM | < 0.2 nM | 74.6 nM
5 | C[C@@H]1COc2cn3ncc4c3nc2N1Cc1cc(F)cnc1OC[C@@H](C(F)F)NC4=O [Compound 97, (4R,13S)-13-(difluoromethyl)-8-fluoro-4-methyl-3,4,13,14-tetra-hydro-6H-18,1-(metheno)[1,4]-oxazino[3,4-i]pyrazolo[4,3-f]pyrido[3,2-l][1,4,8,10]oxatriaza-cyclotridecin-15(12H)-one] | 19.9 nM | < 0.2 nM | 20.2 nM
6 | CC1CCNC(=O)c2cnn3cc4c(nc23)N(Cc2cc(F)cnc2O1)[C@H](C)CO4 (stereo partly drawn) [Compound 69, (16R)-12-fluoro-8,16-dimethyl-5,6,7,8,16,17-hexahydro-4H,14H-1,19-(metheno)[1,4]oxazino[4,3-e]pyrazolo[3,4-h]pyrido[2,3-b] [1,5,7,11]oxatriazacyclotetradecin-4-one] | 23.7 nM | < 0.2 nM | 87.9 nM
7 | C[C@@H]1COc2cn3ncc4c3nc2N1Cc1cc(F)cnc1OCC1(CCCC1)NC4=O [Compound 52, (4'R)-8'-fluoro-4'-methyl-3'H,4'H,6'H,12'H,14'H,15'H-spiro[cyclopentane-1,13'-[2,11]-dioxa[5,10,14,17,18,19]hexaaza-[18,1](metheno)[1,4]oxazino[3,4-i]pyrazolo[4,3-f]pyrido[3,2-l] [1,4,8,10]oxatriazacyclotridecin]-15’-one] | 359 nM | < 0.2 nM | 276 nM
8 | CC[C@@H]1COc2cn3ncc4c3nc2N1Cc1cc(F)ccc1O[C@@H](C)CNC4=O [Compound 6, (4R,12S)-4-ethyl-8-fluoro-12-methyl-3,4,13,14-tetrahydro-6H-18,1-(metheno)[1,4]oxazino[3,4-i]pyrazolo[4,3-f][1,4,8,10]benzo-xatriazacyclotridecin-15(12H)-one] | 234 nM | 0.2 nM | 20.6 nM
9 | C[C@@H]1COc2cn3ncc4c3nc2N1Cc1cc(F)cnc1OCC(C)(C)CNC4=O [Compound 55, (16R)-12-fluoro-7,7,16-trimethyl-5,6.7,8,16,17-hexahydro-4H,14H-1,19-(metheno)[1,4]oxazino[4,3-e]pyrazolo[3,4-h]pyrido[2,3-b] [1,5,7,11]oxatriazacyclotetradecin-4-one] | 4.2 nM | < 0.2 nM | 14.8 nM
10 | C[C@@H]1COc2ncc(F)cc2CN2c3nc4c(cnn4cc3OCC23CC3)C(=O)N1 [Compound 28, (13′R)-8′-fluoro-13′-methyl-3′H,6′H,12′H,14′H,15′H-spiro-[cyclopropane-1,4′-[2,11]dioxa-[5,10,14,17,18,19]hexaaza[18,1]-(metheno)[1,4]oxazino[3,4-i]-pyrazolo[4,3-f]pyrido[3,2-l] [1,4,8,10]oxatriazacyclotridecin]-15′-one] | 786 nM | < 0.2 nM | 180 nM
11 | C[C@@H]1COc2cn3ncc4c3nc2N1Cc1cc(F)cnc1OC[C@H](CO)NC4=O [Compound 82, (4R,13S)-8-fluoro-13-(hydroxy-methyl)-4-methyl-3,4,13,14-tetrahydro-6H-18,1-(metheno)-[1,4]oxazino[3,4-i]pyrazolo[4,3-f]pyrido[3,2-l][1,4,8,10]oxatriaza-cyclotridecin-15(12H)-one] | 37.3 nM | < 0.2 nM | 657 nM
12 | CC[C@@H]1COc2cn3ncc4c3nc2N1Cc1cc(F)cnc1OCC(C)(C)NC4=O [Compound 65, (4R)-4-ethyl-8-fluoro-13,13-dimethyl-3,4,13,14-tetrahydro-6H-18,1-(metheno)[1,4]oxazino[3,4-i]pyrazolo[4,3-f]pyrido[3,2-l][1,4,8,10]oxatriazacyclotridecin-15(12H)-one] | 42.1 nM | < 0.2 nM | 164 nM
13 | C[C@@H]1COc2cn3ncc4c3nc2N1Cc1cc(F)cnc1OCCC1(CCC1)NC4=O [Compound 96, (16′R)-12′-fluoro-16′-methyl-4′H,5′H,7′H,8′H,14′H,16′H,17′H-spiro[cyclobutane-1,6′-[9,18]-dioxa[1,2,5,10,15,20]hexaaza-[1,19](metheno)[1,4]oxazino-[4,3-e]pyrazolo[3,4-h]pyrido[2,3-b][1,5,7,11]oxatriazacyclotetra-decin]-4′-one] | 500 nM | < 0.2 nM | 349 nM
14 | C[C@@H]1COc2cn3ncc4c3nc2N1Cc1cc(F)cnc1OCC1(CC1)NC4=O [Compound 34, (4′R)-8′-fluoro-4′-methyl-3′H,4′H,6′H,12′H,14′H,15′H-spiro[cyclopropane-1,13′-[2,11]dioxa[5,10,14,17,18,19]hexaaza[18,1](metheno)[1,4]oxazino[3,4-i]pyrazolo[4,3-f]pyrido[3,2-l][1,4,8,10]oxatriazacyclotridecin]-15′-one] | 12.5 nM | < 0.2 nM | 23.7 nM
15 | C[C@@H]1COc2ncc(F)cc2[C@H](C)N2c3nc4c(cnn4cc3OC[C@H]2C)C(=O)N1 [Compound 84, (4R,6S,13R)-8-fluoro-4,6,13-trimethyl-3,4,13,14-tetrahydro-6H-18,1-(metheno)[1,4]oxazino[3,4-i]pyrazolo[4,3-f]pyrido[3,2-l][1,4,8,10]oxatriazacyclotridecin-15(12H)-one] | 130 nM | < 0.2 nM | 366 nM
16 | CC[C@@H]1COc2cn3ncc4c3nc2N1Cc1cc(F)cnc1OCC[C@H](C)NC4=O [Compound 75, (6S,16R)-16-ethyl-12-fluoro-6-methyl-5,6,7,8,16,17-hexahydro-4H,14H-1,19-(metheno)[1,4]-oxazino[4,3-e]pyrazolo[3,4-h]-pyrido[2,3-b][1,5,7,11]oxatriaza-cyclotetradecin-4-one] | 9.7 nM | < 0.2 nM | 19.8 nM
17 | C[C@@H]1COc2ncc(F)cc2CN2c3nc4c(cnn4cc3OCC23CCCC3)C(=O)N1 [Compound 59, (13′R)-8′-fluoro-13′-methyl-3′H,6′H,12′H,13′H,14′H,15′H-spiro[cyclopentane-1,4′-[2,11]-dioxa[5,10,14,17,18,19]hexaaza-[18,1](metheno)[1,4]oxazino-[3,4-i]pyrazolo[4,3-f]pyrido-[3,2-l][1,4,8,10]oxatriazacyclo-tridecin]-15′-one] | 2000 nM | < 0.2 nM | 1020 nM
18 | C[C@@H]1COc2cn3ncc4c3nc2N1Cc1cc(F)cnc1OCCCNC4=O [Compound 33, (16R)-12-fluoro-16-methyl-5,6,7,8,16,17-hexahydro-4H,14H-1,19-(metheno)[1,4]oxazino[4,3-e]pyrazolo[3,4-h]pyrido[2,3-b] [1,5,7,11]oxatriazacyclotetradecin-4-one] | 37.1 nM | < 0.2 nM | 58.4 nM
19 | C[C@@H]1COc2cn3ncc4c3nc2N1Cc1cc(F)cnc1O[C@H](CO)CNC4=O [Compound 98, (4R,12S)-8-fluoro-12-(hydroxymethyl)-4-methyl-3,4,13,14-tetrahydro-6H-18,1-(metheno)[1,4]oxazino[3,4-i]pyrazolo[4,3-f]pyrido[3,2-1][1,4,8,10]oxatriazacyclotridecin-15(12H)-one] | 3000 nM | 13.3 nM | 4000 nM
